Measured values as given in US7211594B2, “Indazole compounds and compositions thereof as JNK inhibitors and for the treatment of diseases associated therewith” (Signal Pharmaceuticals, LLC, priority 2000, dated 2007).

Question: With O=[N+]([O-])c1cccc(-c2n[nH]c3ccc([N+](=O)[O-])cc23)c1 as the compound, how does the melting point read?
Answer: 249 to 251 °C

Question: Which melting point does the source give for COc1ccc(-c2n[nH]c3ccc(N)cc23)cc1OC.O=C(O)C(F)(F)F here?
Answer: 150 °C (dec.)

Question: With COc1ccccc1-c1n[nH]c2ccccc12 [Example 3, 3-(2-Methoxyphenyl)-1H-indazole] as the compound, how does the melting point read?
Answer: 99 °C

Question: Which melting point does the source give for Fc1ccc(-c2n[nH]c3ccccc23)cc1 [Example 4, 3-(4-Fluorophenyl)-1H-indazole] here?
Answer: 126 °C

Question: With FC(F)(F)c1ccc2[nH]nc(-c3ccccc3)c2c1 [Example 5, 3-Phenyl-5-trifluoromethyl-1H-indazole] as the compound, how does the melting point read?
Answer: 152 °C

Question: For Fc1ccc2[nH]nc(-c3ccccc3)c2c1 [Example 6, 5-Fluoro-3-phenyl-1H-indazole], which melting point is on record?
Answer: 124 to 125 °C

Question: For O=[N+]([O-])c1ccc2[nH]nc(-c3ccccc3)c2c1 [Example 7, 5-Nitro-3-phenyl-1H-indazole], which melting point is on record?
Answer: 185 to 186 °C

Question: Which melting point does the source give for Nc1ccc2[nH]nc(-c3ccccc3)c2c1 [Example 8, 5-Amino-3-phenyl-1H-indazole] here?
Answer: 104 °C

Question: For COc1ccc(-c2n[nH]c3ccc([N+](=O)[O-])cc23)cc1 [Example 21, 3-(4-Methoxyphenyl)-5-nitro-1H-indazole], which melting point is on record?
Answer: 153 °C

Question: For COc1ccc(-c2n[nH]c3ccc([N+](=O)[O-])cc23)cc1OC [Example 23, 3-(3,4-Dimethoxyphenyl)-5-nitro-1H-indazole], which melting point is on record?
Answer: 172 to 173 °C

Question: For COc1ccc(-c2n[nH]c3ccc(N)cc23)cc1.Cl [Example 34, 5-Amino-3-(4-methoxyphenyl)-1H-indazole Hydrochloride], which melting point is on record?
Answer: 240 °C (dec.)
